# Results as given in patent US6914045B2, “Glycopeptide antibiotics” (Wyeth Holdings Corporation, priority 2001, dated 2005).
# How the values were obtained:
# Assay in all cases: in vitro antibacterial evaluation, MIC by broth dilution
# Type in all cases: cell-based
# Escherichia coli = settings: 18 hours at 35° C.
# Method in brief: (§1)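 Following National Committee for Clinical Laboratory Standards recommendations (M7-A2), susceptibility was measured by dilution in Muller-Hinton II […]. Bacteria were seeded at 5×10^5 CFU/mL against compound concentrations from 64 down to 0.06 μg/mL.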
# Streptococcus sp. = settings: broth dilution, 18 hours at 35° C.
# Method in brief: as §1
# Enterococcus sp. = settings: broth dilution, 18 hours at 35° C.
# Method in brief: as §1
# Staphylococcus sp. = settings: broth dilution, 18 hours at 35° C.
# Method in brief: as §1
smiles,measurement,setting,value
CC(c1ccccc1)C1NC(=O)CNC(=O)C(CO)NC(=O)C(C(O)C2CNC(=N)N2C2OC(CO)C(O)C(O)C2O)NC(=O)C(C(O)C2CNC(=N)N2)NC(=O)C(Cc2ccc(OC3OC(CO)C(OC4OC5COC(c6ccsc6)OC5C(O)C4O)C(O)C3O)cc2)NC1=O (stereo not shown) [Example 133],MIC Escherichia coli (ATCC 25922),Escherichia coli; strain ATCC 25922,64 µg/mL
same,MIC Escherichia coli (GC 4559),Escherichia coli; strain GC 4559,32 µg/mL
same,MIC Escherichia coli (GC 4560),Escherichia coli; strain GC 4560,<0.5 µg/mL
same,MIC Streptococcus agalactiae (GC 4564),Streptococcus sp.; Streptococcus agalactiae (GC 4564),<0.5 µg/mL
same,MIC Streptococcus pneumoniae (ATCC 6301),Streptococcus sp.; Streptococcus pneumoniae (ATCC 6301),<0.5 µg/mL
same,MIC Streptococcus pneumoniae (GC 1894),Streptococcus sp.; Streptococcus pneumoniae (GC 1894),<0.5 µg/mL
same,MIC Streptococcus pneumoniae (GC 4565),Streptococcus sp.; Streptococcus pneumoniae (GC 4565),4 µg/mL
same,MIC Streptococcus pyogenes (GC 4563),Streptococcus sp.; Streptococcus pyogenes (GC 4563),<0.5 µg/mL
same,MIC Streptococcus pneumoniae (ATCC 6301),Streptococcus sp.; strain ATCC 6301,<0.5 µg/mL
same,MIC Streptococcus pneumoniae (GC 1894),Streptococcus sp.; strain GC 1894,<0.5 µg/mL
same,MIC Streptococcus pyogenes (GC 4563),Streptococcus sp.; strain GC 4563,<0.5 µg/mL
same,MIC Streptococcus agalactiae (GC 4564),Streptococcus sp.; strain GC 4564,<0.5 µg/mL
same,MIC Streptococcus pneumoniae (GC 4565),Streptococcus sp.; strain GC 4565,4 µg/mL
same,MIC Enterococcus avium (GC 4558),Enterococcus sp.; Enterococcus avium (GC 4558),8 µg/mL
same,MIC Enterococcus faecalis (ATCC 29212),Enterococcus sp.; Enterococcus faecalis (ATCC 29212),8 µg/mL
same,MIC Enterococcus faecalis (GC 2242),Enterococcus sp.; Enterococcus faecalis (GC 2242),4 µg/mL
same,MIC Enterococcus faecalis (GC 2691),Enterococcus sp.; Enterococcus faecalis (GC 2691),8 µg/mL
same,MIC Enterococcus faecalis (GC 3059),Enterococcus sp.; Enterococcus faecalis (GC 3059),8 µg/mL
same,MIC Enterococcus faecalis (GC 4552),Enterococcus sp.; Enterococcus faecalis (GC 4552),8 µg/mL
same,MIC Enterococcus faecalis (GC 4553),Enterococcus sp.; Enterococcus faecalis (GC 4553),8 µg/mL
same,MIC Enterococcus faecalis (GC 4554),Enterococcus sp.; Enterococcus faecalis (GC 4554),8 µg/mL
same,MIC Enterococcus faecalis (GC 6189),Enterococcus sp.; Enterococcus faecalis (GC 6189),4 µg/mL
same,MIC Enterococcus faecium (GC 2243),Enterococcus sp.; Enterococcus faecium (GC 2243),8 µg/mL
same,MIC Enterococcus faecium (GC 4556),Enterococcus sp.; Enterococcus faecium (GC 4556),8 µg/mL
same,MIC Enterococcus faecium (GC 4557),Enterococcus sp.; Enterococcus faecium (GC 4557),2 µg/mL
same,MIC Enterococcus faecalis (ATCC 29212),Enterococcus sp.; strain ATCC 29212,8 µg/mL
same,MIC Enterococcus faecalis (GC 2242),Enterococcus sp.; strain GC 2242,4 µg/mL
same,MIC Enterococcus faecium (GC 2243),Enterococcus sp.; strain GC 2243,8 µg/mL
same,MIC Enterococcus faecalis (GC 2691),Enterococcus sp.; strain GC 2691,8 µg/mL
same,MIC Enterococcus faecalis (GC 3059),Enterococcus sp.; strain GC 3059,8 µg/mL
same,MIC Enterococcus faecalis (GC 4552),Enterococcus sp.; strain GC 4552,8 µg/mL
same,MIC Enterococcus faecalis (GC 4553),Enterococcus sp.; strain GC 4553,8 µg/mL
same,MIC Enterococcus faecalis (GC 4554),Enterococcus sp.; strain GC 4554,8 µg/mL
same,MIC Enterococcus faecium (GC 4556),Enterococcus sp.; strain GC 4556,8 µg/mL
same,MIC Enterococcus faecium (GC 4557),Enterococcus sp.; strain GC 4557,2 µg/mL
same,MIC Enterococcus avium (GC 4558),Enterococcus sp.; strain GC 4558,8 µg/mL
same,MIC Enterococcus faecalis (GC 6189),Enterococcus sp.; strain GC 6189,4 µg/mL
same,MIC Staphylococcus aureus (ATCC 29213),Staphylococcus sp.,1 µg/mL
same,MIC Staphylococcus aureus (GC 1131),Staphylococcus sp.,2 µg/mL
same,MIC Staphylococcus aureus (GC 3051),Staphylococcus sp.,1 µg/mL
same,MIC Staphylococcus aureus (GC 3053),Staphylococcus sp.,4 µg/mL
same,MIC Staphylococcus aureus (GC 4541),Staphylococcus sp.,1 µg/mL
same,MIC Staphylococcus aureus (GC 4542),Staphylococcus sp.,2 µg/mL
same,MIC Staphylococcus aureus (GC 4544),Staphylococcus sp.,2 µg/mL
same,MIC Staphylococcus aureus (GC 4545),Staphylococcus sp.,1 µg/mL
same,MIC Staphylococcus aureus (GC 1131),"Staphylococcus sp.; inoculum 5×10^5 CFU/mL, strain GC 1131",2 µg/mL
same,MIC Staphylococcus aureus (ATCC 29213),Staphylococcus sp.; strain ATCC 29213,1 µg/mL
same,MIC Staphylococcus aureus (GC 3051),Staphylococcus sp.; strain GC 3051,1 µg/mL
same,MIC Staphylococcus aureus (GC 3053),Staphylococcus sp.; strain GC 3053,4 µg/mL
same,MIC Staphylococcus aureus (GC 4541),Staphylococcus sp.; strain GC 4541,1 µg/mL
same,MIC Staphylococcus aureus (GC 4542),Staphylococcus sp.; strain GC 4542,2 µg/mL
same,MIC Staphylococcus aureus-SMITH (GC 4543),Staphylococcus sp.; strain GC 4543,1 µg/mL
same,MIC Staphylococcus aureus (GC 4544),Staphylococcus sp.; strain GC 4544,2 µg/mL
same,MIC Staphylococcus aureus (GC 4545),Staphylococcus sp.; strain GC 4545,1 µg/mL
same,MIC Staphylococcus haemolyticus (GC 4546),Staphylococcus sp.; strain GC 4546,1 µg/mL
same,MIC Coagulase Negative Staphylococcus (GC 4547),Staphylococcus sp.; strain GC 4547,1 µg/mL
same,MIC Coagulase Negative Staphylococcus (GC 4548),Staphylococcus sp.; strain GC 4548,<0.5 µg/mL
same,MIC Coagulase Negative Staphylococcus (GC 4549),Staphylococcus sp.; strain GC 4549,1 µg/mL
same,MIC Coagulase Negative Staphylococcus (GC 4551),Staphylococcus sp.; strain GC 4551,1 µg/mL
same,MIC Coagulase Negative Staphylococcus (GC 6257),Staphylococcus sp.; strain GC 6257,1 µg/mL
same,MIC Staphylococcus aureus-SMITH (GC 4543),Staphylococcus sp.; strain SMITH GC 4543,1 µg/mL
